The text below walks through data of patent US20030069285A1 (Recordati Ireland Limited, priority 2001, published 2003).

The test system of one data set is isolated rat aorta. The conditions noted are these: in vitro; even after the drug has been removed from the environment of the aortic tissue for 6 hours; cited from earlier work.
Data set [1] can be described thus: Thermogravimetric analysis (TG and TGFTIR). The format is physicochemical. The conditions noted are these: heated in nitrogen stream at 10° C./min; only CO2 is present. The protocol: Each sample weighing 2 to 5 mg was placed in an aluminum crucible of an apparatus PERKIN ELMER TGS-2 Thermogravimetric System (Perkin-Elmer International, Inc., Rotkreuz, Switzerland) and heated in nitrogen stream at a rate of 10° C./min. The thermogravimetric analysis together with an IR analysis in Fourier transform was carried out according to the following operating modes. Each sample weighing 2 to 5 mg was placed in an aluminum crucible of an apparatus Netzsch Thermomicrobalance TG209 (Netzsch Gerätebau, Seib, Germany) coupled with a spectrometer in Fourier transform BRUKER FTIR Vector 22 (Spectrospin, Fällanden, Switzerland) and heated in nitrogen stream at a rate of 10° C./min.

For the compound `COC(=O)C1=C(C)NC(C)=C(C(=O)OC(C)(C)CN(C)CCC(c2ccccc2)c2ccccc2)C1c1cccc([N+](=O)[O-])c1` (centres unmarked) [Lercanidipine, methyl 1,1,N-trimethyl-N-(3,3-diphenylpropyl)-2-aminoethyl 1,4-dihydro-2,6-dimethyl-4-(3-nitrophenyl)pyridine-3,5-dicarboxylate], in the data set with isolated rat aorta, the “isolated rat aorta response to high K+” value is listed as “attenuated”.

As to “lercanidipine hydrochloride-terbutyl methyl ether”, the “temperature above which degradation was observed” value in data set [1] was “above 180 °C”.
